Experiment [1] addresses IDO1 (Homo sapiens, UniProt P14902). Nature of the experiment: IDO1 cellular assay in Hela cells stimulated with IFNγ. To be noted: IFNγ 100 ng/mL, 300 uM L-tryptophan, about 48 hours, fluorescence readout. In kind it is cell-based. The procedure:
IDO1 Cellular Assay in Hela Cells Stimulated with IFNγ
Hela cells were cultured in complete Hela culture medium (90% EMEM, 10% heat-inactivated fetal bovine serum) and expanded to about 1×10^9 cells. The cells were then collected and frozen down at 1×10^7 cells/vial in 1 mL frozen medium (90% complete Hela culture medium, 10% DMSO)
Compounds to be tested were serially diluted in ten 3-fold steps in DMSO starting from 10 mM DMSO stocks in Echo low volume plate(s).
Frozen Hela cells were thawed and transferred into Hela assay medium (99% complete Hela culture medium, 1% Pen/Strep) with 20 mL medium/vial of cells. The cells were spun down at 250 g in a table top centrifuge for 5 min and suspended in same volume of Hela assay medium. […] Sterile L-tryptophan were added to the cells with final concentration of 300 uM L-tryptophan. A small aliquot (2 mL/plate) of Hela cells were set aside and were not treated with IFNγ, to serve as the Max-E control.
Hela cells with and without IFNγ were dispensed to the respective wells of 384-well assay plates containing the compounds. The plates were incubated for about 48 hours at a 37° C., 5% CO2 incubator. Afterwards, […] of 0.5 M methyl isonipecotate in dimethyl sulfoxide were added into each well and the plates were sealed and incubated at 37° C. without CO2 overnight. The plates were centrifuged for 1 min at 200×g. The resulting fluorescence was measured in a Spectramax plate reader (Molecular Devices) with a 400 nm excitation filter and a 510 nm emission filter.
Potencies were calculated by linear least squares fit to the four parameter logistic IC50 equation.

The target in experiment [2] is T1, TDO (Homo sapiens, UniProt P48775).
T1 construct: endogenous in cells; host or cells: SW48 cells (A2780 cells as low-TDO control)
Nature of the experiment: TDO cellular assay in frozen SW48 cells. In kind it is cell-based. To be noted: 300 uM L-tryptophan, about 48 hours, fluorescence readout. How it is done: TDO Cellular Assay in Frozen SW48 Cells
SW48 cells were cultured in complete RPMI culture medium (90% RPMI, 10% heat-inactivated fetal bovine serum).
Compounds to be tested were serially diluted in ten 3-fold steps in DMSO starting from 10 mM DMSO stocks in Echo low volume plate(s). […] The cells were spun down at 350 g in a table top centrifuge for 5 minutes and suspended in same volume of RPMI assay medium. […] Sterile L-tryptophan (Sigma, Cat #T0254) was added to the cells with final concentration of 300 uM.
SW48 and A2780 cells were dispensed to the respective wells of 384-well assay plates containing the compounds. The plates were incubated for about 48 hours at a 37° C., 5% CO2 incubator. Afterwards, 12 μL of 0.5 M ethyl isonipecotate (Sigma Aldrich, Cat #E33505) in dimethyl sulfoxide were added into each well and the plates were sealed and incubated at 37° C. without CO2 overnight. The plates were centrifuged for 1 minute at 200×g. The resulting fluorescence was measured in a Spectramax plate reader (Molecular Devices) with a 400 nm excitation filter and a 510 nm emission filter.
The fluorescence intensity of each well was corrected for the background observed in wells with A2780 cells and was expressed as a fraction of the intensity observed in wells of SW48 cells and DMSO only. Potencies were calculated by linear least squares fit to the four parameter logistic IC50 equation.

IDO1, sequence (P14902 whole entry): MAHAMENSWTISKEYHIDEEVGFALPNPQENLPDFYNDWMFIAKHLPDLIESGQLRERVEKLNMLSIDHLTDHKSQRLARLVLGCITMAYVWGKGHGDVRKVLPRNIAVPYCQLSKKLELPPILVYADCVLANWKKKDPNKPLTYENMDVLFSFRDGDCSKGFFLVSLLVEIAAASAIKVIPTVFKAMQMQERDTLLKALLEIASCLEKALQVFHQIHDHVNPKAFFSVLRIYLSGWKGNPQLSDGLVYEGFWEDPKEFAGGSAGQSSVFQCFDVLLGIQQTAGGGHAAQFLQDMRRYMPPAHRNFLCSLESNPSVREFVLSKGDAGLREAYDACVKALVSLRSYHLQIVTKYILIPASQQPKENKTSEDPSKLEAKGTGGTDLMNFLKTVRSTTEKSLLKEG
T1 sequence (P48775 whole entry): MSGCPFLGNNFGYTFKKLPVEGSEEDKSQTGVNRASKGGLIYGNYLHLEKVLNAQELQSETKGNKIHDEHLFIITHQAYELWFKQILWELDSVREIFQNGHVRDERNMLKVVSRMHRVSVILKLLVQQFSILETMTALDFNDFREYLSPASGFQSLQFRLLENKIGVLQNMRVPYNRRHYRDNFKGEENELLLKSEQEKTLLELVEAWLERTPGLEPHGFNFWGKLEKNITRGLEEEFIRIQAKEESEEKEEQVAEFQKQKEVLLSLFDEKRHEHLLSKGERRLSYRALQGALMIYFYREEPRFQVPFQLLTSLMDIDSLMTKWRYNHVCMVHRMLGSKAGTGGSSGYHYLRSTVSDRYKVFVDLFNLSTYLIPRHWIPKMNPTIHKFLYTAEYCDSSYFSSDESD

Take `O=C(Nc1ccc(C2(C(=O)Nc3ccc(F)cc3)CCC2)cn1)c1cc(Cl)ccn1` [Example 26, 4-chloro-N-(5-{1-[(4-fluorophenyl)carbamoyl]cyclobutyl}pyridin-2-yl)pyridine-2-carboxamide]: the IC50 is 0.013 µM in experiment [1] and ≥ 10 µM in experiment [2]. The matching figures for `O=C(Nc1ccc(C2(C(=O)NCCC(F)(F)F)CCC2)cn1)c1cccc(Cl)c1` [Example 3, 3-chloro-N-(5-{1-[(3,3,3-trifluoropropyl)carbamoyl]cyclobutyl}pyridin-2-yl)benzamide]: 0.003 µM and ≥ 10 µM. The matching figures for `O=C(NC1(c2ccc(NC(=O)c3ncccn3)cn2)CCC1)c1ccc(Cl)nc1` [Example 50, N-(6-{1-[(6-chloropyridine-3-carbonyl)amino]cyclobutyl}pyridin-3-yl)pyrimidine-2-carboxamide]: 1.7 µM and ≥ 10 µM. `N#Cc1cccc(C(=O)Nc2ccc(C3(C(=O)Nc4ccc(F)cc4)CCC3)nc2O)c1` [Example 54, 3-cyano-N-(6-(1-((4-fluorophenyl)carbamoyl)cyclobutyl)-2-hydroxypyridin-3-yl)benzamide] displayed an IC50 in experiment [1] of 0.54 µM. On to `O=C(Nc1ccc(C2(C(=O)Nc3ccc(F)nc3)CCC2)cn1)c1cccc(Cl)n1` [Example 6, 6-chloro-N-(5-{1-[(6-fluoropyridin-3-yl)carbamoyl]cyclobutyl}pyridin-2-yl)pyridine-2-carboxamide], for which the IC50 is 0.094 µM in experiment [1] and ≥ 10 µM in experiment [2]. For the compound `O=C(NC1(c2ccc(NC(=O)c3ncco3)cn2)CCC1)c1ccc(Cl)nc1` [Example 39, N-(6-(1-(6-chloronicotinamido)cyclobutyl)pyridin-3-yl)oxazole-2-carboxamide], the half-maximal inhibitory concentration (IC50) in experiment [1] is 0.921 µM; in experiment [2] it was ≥ 10 µM. The matching figures for `O=C(Nc1ccc(C2(C(=O)Nc3ccc(F)cc3)CCC2)cn1)c1cc(Cl)ccc1F` [Example 16, 5-chloro-2-fluoro-N-(5-{1-[(4-fluorophenyl)carbamoyl]cyclobutyl}pyridin-2-yl)benzamide]: 0.014 µM and ≥ 10 µM. The matching figures for `CC(C)(C)OC(=O)Nc1ccc(C2(C(=O)Nc3ccc(F)cc3)CCC2)cn1` [Example 19, tert-butyl (5-{1-[(4-fluorophenyl)carbamoyl]cyclobutyl}pyridin-2-yl)carbamate]: 0.103 µM and ≥ 10 µM. Consider `N#C[C@@H]1CCC[C@@H](C(=O)Nc2ccc(C3(C(=O)Nc4ccc(F)cc4)CCC3)cn2)C1` [Example 13, (1R,3R)-3-cyano-N-(5-{1-[(4-fluorophenyl)carbamoyl]cyclobutyl}pyridin-2-yl)cyclohexane-1-carboxamide], for which the IC50 was 0.236 µM in experiment [1] and ≥ 10 µM in experiment [2]. The matching figures for `O=C(Nc1ccc(C2(NC(=O)c3ccc(Cl)nc3)CCC2)nc1)c1cccc(F)c1` [Example 51, 6-chloro-N-(1-{5-[(3-fluorobenzene-1-carbonyl)amino]pyridin-2-yl}cyclobutyl)pyridine-3-carboxamide]: 0.02 µM and ≥ 10 µM.

In the case of `CC(C)(C)CCC(=O)Nc1ccc(C2(C(=O)Nc3ccc(F)cc3)CCC2)cn1` [Example 11, 1-{6-[(4,4-dimethylpentanoyl)amino]pyridin-3-yl}-N-(4-fluorophenyl)cyclobutane-1-carboxamide], the IC50 in experiment [1] was 0.096 µM; in experiment [2], ≥ 10 µM. For `O=C(Nc1ccc(C2(NC(=O)c3ccc(Cl)nc3)CCC2)nc1)c1ccnc(Cl)c1` [Example 43, 6-chloro-N-(1-{5-[(2-chloropyridine-4-carbonyl)amino]pyridin-2-yl}cyclobutyl)pyridine-3-carboxamide], in that order: 0.377 µM and ≥ 10 µM. With `N#Cc1ccc(C(=O)Nc2ccc(C3(NC(=O)c4ccc(Cl)nc4)CCC3)nc2)cc1` [Example 47, 6-chloro-N-(1-{5-[(4-cyanobenzene-1-carbonyl)amino]pyridin-2-yl}cyclobutyl)pyridine-3-carboxamide], the IC50 in experiment [1] is 2 µM; in experiment [2] it was ≥ 10 µM. For `CCCNC(=O)C1(c2ccc(NC(=O)c3cccc(Cl)c3)nc2)CCC1` [Example 4, 3-chloro-N-{5-[1-(propylcarbamoyl)cyclobutyl]pyridin-2-yl}benzamide], in that order: 0.151 µM and ≥ 10 µM.

Turning to `N#Cc1cncc(C(=O)Nc2ccc(C3(NC(=O)c4ccc(Cl)nc4)CCC3)nc2)c1` [Example 49, N-(6-{1-[(6-chloropyridine-3-carbonyl)amino]cyclobutyl}pyridin-3-yl)-5-cyanopyridine-3-carboxamide], the IC50 in experiment [1] was 1.21 µM; in experiment [2] it was ≥ 10 µM.

As to `O=C(Nc1ccc(C2(C(=O)Nc3ccc(F)cc3)CCC2)cn1)c1c(F)ccc(Cl)c1F` [Example 21, 3-chloro-2,6-difluoro-N-(5-{1-[(4-fluorophenyl)carbamoyl]cyclobutyl}pyridin-2-yl)benzamide], the figures for the IC50 in experiment [1] and in experiment [2] were 0.094 µM and ≥ 10 µM, respectively. For `O=C(Nc1ccc(C2(C(=O)Nc3ccc(F)cc3)CCC2)cn1)c1cncc(F)c1` [Example 28, 5-fluoro-N-(5-{1-[(4-fluorophenyl)carbamoyl]cyclobutyl}pyridin-2-yl)pyridine-3-carboxamide], in that order: 0.03 µM and ≥ 10 µM. The matching figures for `N#C[C@@H]1CCC[C@H](C(=O)Nc2ccc(C3(C(=O)Nc4ccc(F)cc4)CCC3)cn2)C1` [Example 10, (1S,3R)-3-cyano-N-(5-{1-[(4-fluorophenyl)carbamoyl]cyclobutyl}pyridin-2-yl)cyclohexane-1-carboxamide]: 0.067 µM and ≥ 10 µM.

For the compound `O=C(Nc1ccc(C2(C(=O)Nc3ccc(F)cn3)CCC2)cn1)c1cncc(Cl)c1` [Example 34, 5-chloro-N-(5-{1-[(5-fluoropyridin-2-yl)carbamoyl]cyclobutyl}pyridin-2-yl)pyridine-3-carboxamide], the IC50 is 0.104 µM in experiment [1] and ≥ 10 µM in experiment [2].

In the case of `O=C(NC1(c2ccc(NC(=O)c3nccs3)cn2)CCC1)c1ccc(Cl)nc1` [Example 40, 6-chloro-N-(1-{5-[(1,3-thiazole-2-carbonyl)amino]pyridin-2-yl}cyclobutyl)pyridine-3-carboxamide], the IC50 was 0.28 µM in experiment [1] and ≥ 10 µM in experiment [2]. The matching figures for `N#Cc1cccc(C(=O)Nc2ccc(C3(NC(=O)c4ccc(Cl)nc4)CCC3)nc2)c1` [Example 48, 6-chloro-N-(1-{5-[(3-cyanobenzene-1-carbonyl)amino]pyridin-2-yl}cyclobutyl)pyridine-3-carboxamide]: 0.035 µM and ≥ 10 µM. On to `O=C(NC1CCCCC1)c1ccc(C2(C(=O)Nc3ccc(F)cc3)CCC2)cn1` [Example 35, N-cyclohexyl-5-(1-((4-fluorophenyl)carbamoyl)cyclobutyl)picolinamide], for which the IC50 in experiment [1] is 0.473 µM; in experiment [2], ≥ 10 µM. As to `O=C(Nc1ccc(C2(NC(=O)c3ccc(Cl)nc3)CCC2)nc1)c1cncc(Cl)c1` [Example 44, 5-chloro-N-(6-{1-[(6-chloropyridine-3-carbonyl)amino]cyclobutyl}pyridin-3-yl)pyridine-3-carboxamide], the figures for the IC50 in experiment [1] and in experiment [2] were 0.131 µM and ≥ 10 µM, respectively. The matching figures for `Cc1cccc(C(=O)Nc2ccc(C3(C(=O)Nc4ccc(F)nc4)CCC3)cn2)n1` [Example 8, N-(5-{1-[(6-fluoropyridin-3-yl)carbamoyl]cyclobutyl}pyridin-2-yl)-6-methylpyridine-2-carboxamide]: 0.043 µM and ≥ 10 µM.

With `O=C(CCC1CC1)Nc1ccc(C2(C(=O)Nc3ccc(F)nc3)CCC2)cn1` [Example 12, 1-{6-[(3-cyclopropylpropanoyl)amino]pyridin-3-yl}-N-(6-fluoropyridin-3-yl)cyclobutane-1-carboxamide], the IC50 was 0.227 µM in experiment [1] and ≥ 10 µM in experiment [2].

Values taken from patent US11111232B2, “Substituted cyclobutylpyridine and cyclobutylpyrimidine compounds as indoleamine 2,3-dioxygenase (IDO) inhibitors” (MERCK SHARP & DOHME CORP., priority 2017, dated 2021).
